Assay results: ChEMBL document CHEMBL1143492, “Design, synthesis, and bioavailability evaluation of coumarin-based prodrug of meptazinol” (Bioorg Med Chem Lett, 2005)

Assay: Area under curve was determined after intravenous administration (29.7 umol/kg) in rat
Type: ADME
Details: in vivo

SMILES: CCC1(c2cccc(O)c2)CCCCN(C)C1 (stereo unspecified) [MEPTAZINOL]
- AUC: 1990 ng·h/mL
